pIC50: −log10 of the molar value.
Target: T1, p38a activated, mitogen-activated protein kinase-activated protein kinase 2 (MAPKAP-K2 or MK2) enzyme (Homo sapiens, UniProt P49137)
T1 construct: purchased Invitrogen PV3317
Assay: MK2 OMNIA biochemical assay (AssayQuant continuous-read kinase assay)
Conditions: [MK-2]=0.05 nM, [ATP]=100 μM, [AQT0425]=10 μM
Description: Example 56.2. Mitogen-Activated Protein Kinase-Activated Protein Kinase 2 AssayQuant Technologies® Assay for Compound Potency Assessment (MK2 OMNIA Biochemical Assay)
The protocol below describes a continuous-read kinase assay optimized to measure potency of compounds against p38a activated, mitogen-activated protein kinase-activated protein kinase 2 (MAPKAP-K2 or MK2) enzyme.
A 1.25× stock solution of MK2 (PV3317, from Invitrogen) and a 5× stock solution of ATP and Sox conjugated peptide substrate, AQT0425 (CSKS-AQT0425B, from AssayQuant Technologies), were prepared in 1× kinase reaction buffer consisting of 50 mM HEPES, pH 7.5, 0.01% Brij-35, 0.55 mM EGTA, 10 mM MgCl2 and 1 mM DTT.
10 μL of the ATP and substrate solution mix was added to a Coming (3574) 384-well, white, non-binding surface microtiter plate containing 0.5 μL of serially diluted test compounds prepared in DMSO. The reactions were started with the addition of 40 μL of the enzyme solution and monitored every 71 seconds for 240 min at kex 360/λem 485 in a Synergy H4 plate reader from BioTek at room temperature.
The initial linear portions of the net progress curves were fit according to a linear equation to yield the slope and percentage of inhibition (% inhibition) at each compound concentration. The net progress curves obtained during the entirety of reactions were also fit according to an ascending single-exponential equation (Eq. 1) to yield Vobs values at each compound concentration. Plots of % Inhibition versus degrader concentrations were fit according to a dose-response equation (Eq. 2) to generate IC50 and Hill slope values while plots of Vobs versus degrader concentration were fit according to Equation 3 (Eq. 3) to generate apparent Kinact values using the GraphPad PRISM software.
where F is the fluorescence intensity from the plate reader, V0 is a constant reflecting the relationship between the instrument readout and product concentration, t is time, e is Euler's number, and Vobs is the observed inactivation rate constant.
where % Inhibition is percentage of inhibition, IC50 is half maximal inhibitory concentration, [I] is the degraders concentration, and n is the Hill slope.
where kobs is the observed inactivation rate constant, Kinact is the apparent inactivation rate constant, K1 is the apparent inhibition constant, and [I] is the degrader concentration.

T1 sequence (P49137 whole entry): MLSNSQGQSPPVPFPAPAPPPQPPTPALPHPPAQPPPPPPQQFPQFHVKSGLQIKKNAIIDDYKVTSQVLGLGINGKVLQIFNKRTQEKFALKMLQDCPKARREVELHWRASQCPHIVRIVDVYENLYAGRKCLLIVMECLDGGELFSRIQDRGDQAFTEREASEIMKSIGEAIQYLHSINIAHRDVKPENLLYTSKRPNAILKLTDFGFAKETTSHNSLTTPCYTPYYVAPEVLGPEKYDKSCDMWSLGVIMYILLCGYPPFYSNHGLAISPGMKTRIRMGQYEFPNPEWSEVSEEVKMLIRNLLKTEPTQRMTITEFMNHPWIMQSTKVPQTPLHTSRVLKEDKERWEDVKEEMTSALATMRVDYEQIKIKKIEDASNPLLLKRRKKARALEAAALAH

| pIC50 | Structure (SMILES) |
| --- | --- |
| > 6.82 | C[C@@H]1CNc2c(sc3ccc4nc(-c5ccc(C(=O)NC6CCN(c7ccc8c(C9CCC(=O)NC9=O)nn(C)c8c7)CC6)cc5F)ccc4c23)C(=O)N1 (stereo partly drawn) [Ex 1, N-(1-(3-(2,6-dioxopiperidin-3-yl)-1-methyl-1H-indazol-6-yl)piperidin-4-yl)-3-fluoro-4-((R)-10-methyl-8-oxo-9,10,11,12-tetrahydro-8H-[1,4]diazepino[5′,6′:4,5]thieno[3,2-f]quinolin-3-yl)benzamide] |
| > 6.82 | C[C@@H]1CNc2c(sc3ccc4nc(-c5ccc(C(=O)NCCN6CCN(c7ccc8c(C9CCC(=O)NC9=O)nn(C)c8c7)CC6)cc5F)ccc4c23)C(=O)N1 (stereo partly drawn) [Ex 2, N-(2-(4-(3-(2,6-dioxopiperidin-3-yl)-1-methyl-1H-indazol-6-yl)piperazin-1-yl)ethyl)-3-fluoro-4-((R)-10-methyl-8-oxo-9,10,11,12-tetrahydro-8H-[1,4]diazepino[5′,6′:4,5]thieno[3,2-f]quinolin-3-yl)benzamide] |
| > 6.82 | C[C@@H]1CNc2c(sc3ccc4nc(-c5ccc(C(=O)N[C@H]6C[C@H](CN7CCN(c8ccc9c(C%10CCC(=O)NC%10=O)nn(C)c9c8)CC7)C6)cc5F)ccc4c23)C(=O)N1 (stereo partly drawn) [Ex 3, N-((trans)-3-((4-(3-(2,6-Dioxopiperidin-3-yl)-1-methyl-1H-indazol-6-yl)piperazin-1-yl)methyl)cyclobutyl)-3-fluoro-4-((R)-10-methyl-8-oxo-9,10,11,12-tetrahydro-8H-[1,4]diazepino[5′,6′:4,5]thieno[3,2-f]quinolin-3-yl)benzamide] |
| > 6.82 | C[C@@H]1CNc2c(sc3ccc4nc(-c5ccc(C(=O)N[C@H]6C[C@H](CCN7CCN(c8ccc9c(C%10CCC(=O)NC%10=O)nn(C)c9c8)CC7)C6)cc5F)ccc4c23)C(=O)N1 (stereo partly drawn) [Ex 4, N-(trans-3-(2-(4-(3-(2,6-Dioxopiperidin-3-yl)-1-methyl-1H-indazol-6-yl)piperazin-1-yl)ethyl)cyclobutyl)-3-fluoro-4-((R)-10-methyl-8-oxo-9,10,11,12-tetrahydro-8H-[1,4]diazepino[5′,6′:4,5]thieno[3,2-f]quinolin-3-yl)benzamide] |
| > 6.82 | C[C@@H]1CNc2c(sc3ccc4nc(-c5ccc(C(=O)N[C@H]6CC[C@H](CN7CCN(c8ccc9c(C%10CCC(=O)NC%10=O)nn(C)c9c8)CC7)CC6)cc5F)ccc4c23)C(=O)N1 (stereo partly drawn) [Ex 5, N-(trans-4-((4-(3-(2,6-dioxopiperidin-3-yl)-1-methyl-1H-indazol-6-yl)piperazin-1-yl)methyl)cyclohexyl)-3-fluoro-4-((R)-10-methyl-8-oxo-9,10,11,12-tetrahydro-8H-[1,4]diazepino[5′,6′:4,5]thieno[3,2-f]quinolin-3-yl)benzamide] |
| > 6.82 | C[C@@H]1CNc2c(sc3ccc4nc(-c5ccc(C(=O)N[C@H]6CC[C@H](CCN7CCN(c8ccc9c(C%10CCC(=O)NC%10=O)nn(C)c9c8)CC7)CC6)cc5F)ccc4c23)C(=O)N1 (stereo partly drawn) [Ex 6, N-(trans-4-(2-(4-(3-(2,6-Dioxopiperidin-3-yl)-1-methyl-1H-indazol-6-yl)piperazin-1-yl)ethyl)cyclohexyl)-3-fluoro-4-((R)-10-methyl-8-oxo-9,10,11,12-tetrahydro-8H-[1,4]diazepino[5′,6′:4,5]thieno[3,2-f]quinolin-3-yl)benzamide] |
| 6.30 to 6.82 | C[C@@H]1CNc2c(sc3ccc4nc(-c5ccc(C(=O)N[C@H]6CC[C@H](CCN7CCN(c8ccc(C9CCC(=O)NC9=O)cc8)CC7)CC6)cc5F)ccc4c23)C(=O)N1 (stereo partly drawn) [Ex 10, N-((trans)-4-(2-(4-(4-(2,6-Dioxopiperidin-3-yl)phenyl)piperazin-1-yl)ethyl)cyclohexyl)-3-fluoro-4-((R)-10-methyl-8-oxo-9,10,11,12-tetrahydro-8H-[1,4]diazepino[5′,6′:4,5]thieno[3,2-f]quinolin-3-yl)benzamide] |

More lines, now with the values behind:

| Structure (SMILES) | pIC50 |
| --- | --- |
| C[C@@H]1CNc2c(sc3ccc4nc(-c5ccc(C(=O)NC6CCN(c7ccc(C8CCC(=O)NC8=O)cc7)CC6)cc5F)ccc4c23)C(=O)N1 (stereo partly drawn) [Ex 7, N-(1-(4-(2,6-Dioxopiperidin-3-yl)phenyl)piperidin-4-yl)-3-fluoro-4-((R)-10-methyl-8-oxo-9,10,11,12-tetrahydro-8H-[1,4]diazepino[5′,6′:4,5]thieno[3,2-f]quinolin-3-yl)benzamide] | > 6.82 |
| C[C@@H]1CNc2c(sc3ccc4nc(-c5ccc(C(=O)NCCN6CCN(c7ccc(C8CCC(=O)NC8=O)cc7)CC6)cc5F)ccc4c23)C(=O)N1 (stereo partly drawn) [Ex 8, N-(2-(4-(4-(2,6-Dioxopiperidin-3-yl)phenyl)piperazin-1-yl)ethyl)-3-fluoro-4-((R)-10-methyl-8-oxo-9,10,11,12-tetrahydro-8H-[1,4]diazepino[5′,6′:4,5]thieno[3,2-f]quinolin-3-yl)benzamide] | > 6.82 |
| C[C@@H]1CNc2c(sc3ccc4nc(-c5ccc(C(=O)N[C@H]6CC[C@H](CN7CCN(c8ccc(C9CCC(=O)NC9=O)cc8)CC7)CC6)cc5F)ccc4c23)C(=O)N1 (stereo partly drawn) [Ex 9, N-(trans-4-((4-(4-(2,6-Dioxopiperidin-3-yl)phenyl)piperazin-1-yl)methyl)cyclohexyl)-3-fluoro-4-((R)-10-methyl-8-oxo-9,10,11,12-tetrahydro-8H-[1,4]diazepino[5′,6′:4,5]thieno[3,2-f]quinolin-3-yl)benzamide] | > 6.82 |
| C[C@@H]1CNc2c(sc3ccc4nc(-c5cccc(N6CCN(CCN7CCN(c8ccc(C9CCC(=O)NC9=O)cc8)CC7)CC6)c5)ccc4c23)C(=O)N1 (stereo partly drawn) [Ex 11, 3-(4-(4-(2-(4-(3-((R)-10-Methyl-8-oxo-9,10,11,12-tetrahydro-8H-[1,4]diazepino[5′,6′:4,5]thieno[3,2-f]quinolin-3-yl)phenyl)piperazin-1-yl)ethyl)piperazin-1-yl)phenyl)piperidine-2,6-dione] | > 6.82 |
| C[C@@H]1CNc2c(sc3ccc4nc(-c5cccc(N6CCN(CCN7CCN(c8ccc9c(C%10CCC(=O)NC%10=O)nn(C)c9c8)CC7)CC6)c5)ccc4c23)C(=O)N1 (stereo partly drawn) [Ex 12, 3-(1-Methyl-6-(4-(2-(4-(3-((R)-10-methyl-8-oxo-9,10,11,12-tetrahydro-8H-[1,4]diazepino[5′,6′:4,5]thieno[3,2-f]quinolin-3-yl)phenyl)piperazin-1-yl)ethyl)piperazin-1-yl)-1H-indazol-3-yl)piperidine-2,6-dione] | > 6.82 |
| C[C@@H]1CNc2c(sc3ccc4nc(-c5cccc(N6CCN(C(=O)C(=O)N7CCN(c8ccc(C9CCC(=O)NC9=O)cc8)CC7)CC6)c5)ccc4c23)C(=O)N1 (stereo partly drawn) [Ex 13, 3-(4-(4-(2-(4-(3-((R)-10-Methyl-8-oxo-9,10,11,12-tetrahydro-8H-[1,4]diazepino[5′,6′:4,5]thieno[3,2-f]quinolin-3-yl)phenyl)piperazin-1-yl)-2-oxoacetyl)piperazin-1-yl)phenyl)piperidine-2,6-dione] | > 6.82 |
| C[C@@H]1CNc2c(sc3ccc4nc(-c5cccc(N6CCN(C(=O)C(=O)N7CCN(c8ccc9c(C%10CCC(=O)NC%10=O)nn(C)c9c8)CC7)CC6)c5)ccc4c23)C(=O)N1 (stereo partly drawn) [Ex 14, 3-(1-Methyl-6-(4-(2-(4-(3-((R)-10-methyl-8-oxo-9,10,11,12-tetrahydro-8H-[1,4]diazepino[5′,6′:4,5]thieno[3,2-f]quinolin-3-yl)phenyl)piperazin-1-yl)-2-oxoacetyl)piperazin-1-yl)-1H-indazol-3-yl)piperidine-2,6-dione] | > 6.82 |
| C[C@@H]1CNc2c(sc3ccc4nc(-c5cccc(N6CC7CC(C6)N7CCN6CCN(c7ccc8c(C9CCC(=O)NC9=O)nn(C)c8c7)CC6)c5)ccc4c23)C(=O)N1 (stereo partly drawn) [Ex 15, 3-(1-Methyl-6-(4-(2-(3-(3-((R)-10-methyl-8-oxo-9,10,11,12-tetrahydro-8H-[1,4]diazepino[5′,6′:4,5]thieno[3,2-f]quinolin-3-yl)phenyl)-3,6-diazabicyclo[3.1.1]heptan-6-yl)ethyl)piperazin-1-yl)-1H-indazol-3-yl)piperidine-2,6-dione] | > 6.82 |
| C[C@@H]1COc2c(sc3ccc4nc(-c5cccc(N6CCN(CCN7CCN(c8ccc(C9CCC(=O)NC9=O)cc8)CC7)CC6)c5)ccc4c23)C(=O)N1 (stereo partly drawn) [Ex 16, 3-(4-(4-(2-(4-(3-((R)-10-Methyl-8-oxo-8,9,10,11-tetrahydro-[1,4]oxazepino[7′,6′:4,5]thieno[3,2-f]quinolin-3-yl)phenyl)piperazin-1-yl)ethyl)piperazin-1-yl)phenyl)piperidine-2,6-dione] | > 6.82 |
| C[C@@H]1COc2c(sc3ccc4nc(-c5cccc(N6CCN(CCN7CCN(c8ccc9c(C%10CCC(=O)NC%10=O)nn(C)c9c8)CC7)CC6)c5)ccc4c23)C(=O)N1 (stereo partly drawn) [Ex 17, 3-(1-Methyl-6-(4-(2-(4-(3-((R)-10-methyl-8-oxo-8,9,10,11-tetrahydro-[1,4]oxazepino[7′,6′:4,5]thieno[3,2-f]quinolin-3-yl)phenyl)piperazin-1-yl)ethyl)piperazin-1-yl)-1H-indazol-3-yl)piperidine-2,6-dione] | > 6.82 |
